Data on two molecules can be found in paper PMC11212140, “Molecular Bidents with Two Electrophilic Warheads as a New Pharmacological Modality” (ACS Central Science, 2024).

The structures appear in SMILES notation.

One experiment concerns T1, CHED.
T1 construct: purchased ActivX Biosciences (KiNativ)
Nature of the experiment: KiNativ profiling in H3255 cells. It counts as cell-based, human. To be noted: 2.5 µM; Lys2; DIKCSNILLNNR

Another experiment has as its target T2, MKK7 (Homo sapiens, UniProt O14733).
T2 construct: purchased DiscoverX
T2 sequence (O14733 1-419): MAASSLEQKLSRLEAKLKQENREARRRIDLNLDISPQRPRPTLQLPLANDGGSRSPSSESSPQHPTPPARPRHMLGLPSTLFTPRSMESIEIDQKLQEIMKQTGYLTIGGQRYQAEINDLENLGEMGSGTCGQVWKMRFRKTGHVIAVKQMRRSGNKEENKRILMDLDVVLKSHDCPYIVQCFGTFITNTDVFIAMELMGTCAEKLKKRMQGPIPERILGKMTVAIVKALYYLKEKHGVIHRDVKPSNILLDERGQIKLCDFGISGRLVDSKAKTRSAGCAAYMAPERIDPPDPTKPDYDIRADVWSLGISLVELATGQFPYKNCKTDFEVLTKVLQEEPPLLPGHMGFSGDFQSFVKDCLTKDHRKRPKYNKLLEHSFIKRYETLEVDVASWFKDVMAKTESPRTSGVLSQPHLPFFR
Nature of the experiment: MKK7 binding, KdELECT assays (DiscoverX). To be noted: KdELECT. From the text:
Figure 2 ZNL-8162 is a molecular bident for MKK7. (A) Compound structures for MKK7-targeting molecular bident (ZNL-8162) and its relatives lacking one or both cysteine-reactive groups. (B) Covalent modeling for ZNL-8162 engagement of MKK7(PDB: 6YG3). (C) MS/MS spectrum of ZNL-8162 covalently modifying Cys218 and Cys276 of MKK7. Red and yellow circles indicate ions of type y for sequences marked (1) and (2), respectively. Blue circles indicate ions of b for sequence (1). *, carbamidomethyl cysteine, Δ, oxidized methionine. (D) MKK7 binding data were obtained from KdELECT assays (DiscoverX). Data are presented as mean ± s.d. of n = 2 biologically independent samples.
Table S2. […]

The test system of a further experiment is T3, EGFR.
T3 construct: expressed in transfected cells; host or cells: Ba/F3 (murine pro-B cells transduced with an EGFR mutant expression vector)
Nature of the experiment: Cellular target engagement assays (competitive pulldown). To be noted: EGFR^L858R Ba/F3 cells, 6 h pretreatment. It counts as cell-based. How it is done:
Figure 4 ZNL-0056 covalently engages Cys775 and Cys797 in EGFR Ba/F3 cells. (A) Carton of competition EGFR pulldown strategy to test covalent EGFR engagement in cells. (B) Competitive pulldown assay in EGFR^L858R Ba/F3 cells treated with ZNL-0056 at the indicated concentrations for 6 h. Cell lysates were incubated with bio-osimertinib. (C) Competitive pulldown assay in EGFR^L858R Ba/F3 cells treated with ZNL-0056 at the indicated concentrations for 6 h. Cell lysates were incubated with bio-ZNL-0013, which competes for the binding pocket of the target kinase. (D) Competitive pulldown assay in EGFR^L858R/C797S Ba/F3 cells treated with ZNL-0056 at the indicated concentrations for 6 h. Cell lysates were incubated with bio-ZNL-0013, which competes for the binding pocket of the target kinase. Western blotting showing the pulldown (PD) or input (total lysate) of EGFR. […]
treatment. Cell viability was determined by using CellTiter-Glo (Promega #G7571) according to the manufacturer’s instructions, measuring luminescence using an Envision plate-reader (PerkinElmer Inc.). […]
After 6 hours treatment, cells were pelleted, washed with PBS once and lysed with IP lysis buffer (25mMTris-HCl pH 7.4, 150mM NaCl, 1 mM EDTA, 1% NP-40 and 5% glycerol) (Thermo Fisher Scientific, Cat#87788) containing protease/phosphatase inhibitor cocktail (Roche). The protein concentrations were measured by BCA analysis (Pierce). […]

The test system of experiment [1] is panel of 468 human kinases. The conditions noted are these: 1 μM.
Experimental: KinomeScan profiling for ZNL-0056 at 1 μM against a panel of 468 human kinases. The results
for the binding interactions are reported as “% Ctrl”, where larger circles indicate stronger hits.
The selectivity score was defined as the ratio of the number of kinases inhibited to a specified
percentage versus the total number of kinases. For this experiment, specified percent inhibition

For `C=CC(=O)Nc1cc(Nc2nccc(-c3cn(C)c4ccccc34)n2)c(OC)cc1N(C)CCN(C)C` [Osimertinib, osimertinib, reference compound], the Inhibition (commonly the change of the read-out against control, counted positive when it falls) in the experiment on CHED worked out at 28.0%.
`C=CC(=O)Nc1cc(C(=O)Nc2nc3cccc(C)c3n2[C@@H]2CCCCN(C(=O)C=C)C2)cs1` [ZNL-0056]: the Kd (in general, the concentration at which binding is half-saturated) on MKK7 is 36 nM. For the same molecule, the “prevention of EGFR binding to osimertinib-biotin target-engagement probe” value in the experiment with EGFR is given as “dose-dependent manner”. Besides, the “selectivity score S (10)” value in experiment [1] is 0.05.
